Results on three compounds are retold here after PubChem BioAssay AID1259407 (Chemical Carcinogenesis Research Information System (CCRIS), 2018).

Structures are written as SMILES. The source made the active and inactive calls. The rule behind the calls is not given here.

The data set relates to CCRIS mutagenicity, Ames/micronucleus/aberration tests. Put plainly: CCRIS mutagenicity studies.
Setting [1] is: Test System: AMES SALMONELLA TYPHIMURIUM, Strain/Indicator: TA98, Metabolic Activation: NONE, Method: PREINCUBATION
The mark [2] stands for this setting: Test System: AMES SALMONELLA TYPHIMURIUM, Strain/Indicator: TA100, Metabolic Activation: NONE, Method: PREINCUBATION

Turning to `Nc1cccc2c(N)cccc12`, the mutagenic call is “inactive; negative” (Test System: AMES SALMONELLA TYPHIMURIUM, Strain/Indicator: TA98, Metabolic Activation: NONE, Method: STANDARD PLATE); “inactive; negative” (Test System: AMES SALMONELLA TYPHIMURIUM, Strain/Indicator: TA98, Metabolic Activation: RAT, LIVER, S-9, Method: STANDARD PLATE); “inactive; negative” (Test System: AMES SALMONELLA TYPHIMURIUM, Strain/Indicator: TA1535, Metabolic Activation: HAMSTER, LIVER, S-9, AROCLOR 1254, Method: STANDARD PLATE); “inactive; negative” (Test System: AMES SALMONELLA TYPHIMURIUM, Strain/Indicator: TA1535, Metabolic Activation: HAMSTER, LIVER, S-9, Method: STANDARD PLATE); “inactive; negative” (Test System: AMES SALMONELLA TYPHIMURIUM, Strain/Indicator: TA1535, Metabolic Activation: MOUSE, LIVER, S-9, AROCLOR 1254, Method: STANDARD PLATE); “inactive; negative” (Test System: AMES SALMONELLA TYPHIMURIUM, Strain/Indicator: TA1535, Metabolic Activation: MOUSE, LIVER, S-9, Method: STANDARD PLATE). The mutagenic call was “inactive; negative” (Test System: AMES SALMONELLA TYPHIMURIUM, Strain/Indicator: TA1535, Metabolic Activation: NONE, Method: STANDARD PLATE); “inactive; negative” (Test System: AMES SALMONELLA TYPHIMURIUM, Strain/Indicator: TA1535, Metabolic Activation: RAT, LIVER, S-9, AROCLOR 1254, Method: STANDARD PLATE); “inactive; negative” (Test System: AMES SALMONELLA TYPHIMURIUM, Strain/Indicator: TA1535, Metabolic Activation: RAT, LIVER, S-9, Method: STANDARD PLATE); “active; positive” (Test System: AMES SALMONELLA TYPHIMURIUM, Strain/Indicator: TA1537, Metabolic Activation: HAMSTER, LIVER, S-9, AROCLOR 1254, Method: STANDARD PLATE); “inactive; negative” (Test System: AMES SALMONELLA TYPHIMURIUM, Strain/Indicator: TA1537, Metabolic Activation: MOUSE, LIVER, S-9, Method: STANDARD PLATE); “inactive; negative” (Test System: AMES SALMONELLA TYPHIMURIUM, Strain/Indicator: TA1537, Metabolic Activation: RAT, LIVER, S-9, Method: STANDARD PLATE). Moreover, the mutagenic call is “inactive; negative” (Test System: AMES SALMONELLA TYPHIMURIUM, Strain/Indicator: TA1538, Metabolic Activation: MOUSE, LIVER, S-9, AROCLOR 1254, Method: STANDARD PLATE); “inactive; negative” (Test System: AMES SALMONELLA TYPHIMURIUM, Strain/Indicator: TA1538, Metabolic Activation: MOUSE, LIVER, S-9, Method: STANDARD PLATE); “inactive; negative” (Test System: AMES SALMONELLA TYPHIMURIUM, Strain/Indicator: TA1538, Metabolic Activation: NONE, Method: STANDARD PLATE); “inactive; negative” (Test System: AMES SALMONELLA TYPHIMURIUM, Strain/Indicator: TA1538, Metabolic Activation: RAT, LIVER, S-9, Method: STANDARD PLATE); “inactive; negative” (Test System: E. COLI, Strain/Indicator: WP2 UVRA, Metabolic Activation: HAMSTER, LIVER, S-9, AROCLOR 1254, Method: STANDARD PLATE); “inactive; negative” (Test System: E. COLI, Strain/Indicator: WP2 UVRA, Metabolic Activation: HAMSTER, LIVER, S-9, Method: STANDARD PLATE). Also, the mutagenic call runs as follows: (Test System: E. COLI, Strain/Indicator: WP2 UVRA, Metabolic Activation: MOUSE, LIVER, S-9, AROCLOR 1254, Method: STANDARD PLATE) “inactive; negative”; (Test System: E. COLI, Strain/Indicator: WP2 UVRA, Metabolic Activation: MOUSE, LIVER, S-9, Method: STANDARD PLATE) “inactive; negative”; (Test System: E. COLI, Strain/Indicator: WP2 UVRA, Metabolic Activation: NONE, Method: STANDARD PLATE) “inactive; negative”; (Test System: E. COLI, Strain/Indicator: WP2 UVRA, Metabolic Activation: RAT, LIVER, S-9, AROCLOR 1254, Method: STANDARD PLATE) “inactive; negative”; (Test System: E. COLI, Strain/Indicator: WP2 UVRA, Metabolic Activation: RAT, LIVER, S-9, Method: STANDARD PLATE) “inactive; negative”.
Take `F[B-](F)(F)F`: the mutagenic call runs as follows: under setting [1], “inactive; negative”; (Test System: AMES SALMONELLA TYPHIMURIUM, Strain/Indicator: TA98, Metabolic Activation: RAT, LIVER, S-9, KC 500, Method: PREINCUBATION) “inactive; negative”; under setting [2], “inactive; negative”; (Test System: AMES SALMONELLA TYPHIMURIUM, Strain/Indicator: TA100, Metabolic Activation: RAT, LIVER, S-9, KC 500, Method: PREINCUBATION) “inactive; negative”; (Test System: AMES SALMONELLA TYPHIMURIUM, Strain/Indicator: TA1535, Metabolic Activation: NONE, Method: PREINCUBATION) “inactive; negative”; (Test System: AMES SALMONELLA TYPHIMURIUM, Strain/Indicator: TA1535, Metabolic Activation: RAT, LIVER, S-9, KC 500, Method: PREINCUBATION) “inactive; negative”. For the same compound, the mutagenic call (Test System: AMES SALMONELLA TYPHIMURIUM, Strain/Indicator: TA1537, Metabolic Activation: NONE, Method: PREINCUBATION) was “inactive; negative”; the mutagenic call (Test System: AMES SALMONELLA TYPHIMURIUM, Strain/Indicator: TA1537, Metabolic Activation: RAT, LIVER, S-9, KC 500, Method: PREINCUBATION) was “inactive; negative”; the mutagenic call (Test System: AMES SALMONELLA TYPHIMURIUM, Strain/Indicator: TA1538, Metabolic Activation: NONE, Method: PREINCUBATION) was “inactive; negative”; the mutagenic call (Test System: AMES SALMONELLA TYPHIMURIUM, Strain/Indicator: TA1538, Metabolic Activation: RAT, LIVER, S-9, KC 500, Method: PREINCUBATION) is “inactive; negative”; the mutagenic call (Test System: E. COLI, Strain/Indicator: WP2 UVRA, Metabolic Activation: NONE, Method: PREINCUBATION) is “inactive; negative”; the mutagenic call (Test System: E. COLI, Strain/Indicator: WP2 UVRA, Metabolic Activation: RAT, LIVER, S-9, KC 500, Method: PREINCUBATION) was “inactive; negative”.
For the compound `CN(C)c1ccc(N)cc1`, the mutagenic call by setting is: (End Point: IN VITRO CHROMOSOMAL ABERRATIONS, Test System: CHINESE HAMSTER LUNG CELLS (CHL), Metabolic Activation: NONE) “active; positive (structural changes)”; (End Point: IN VITRO CHROMOSOMAL ABERRATIONS, Test System: CHINESE HAMSTER LUNG CELLS (CHL), Metabolic Activation: RAT, LIVER, S-9, KC-400) “inactive; negative; authors describe results at highest dose as equivocal”; (End Point: IN VITRO CHROMOSOMAL ABERRATIONS, Test System: CHINESE HAMSTER OVARY CELLS (CHO), Metabolic Activation: NONE) “inactive; positive at highest dose; authors describe overall results as negative”; (End Point: IN VITRO CHROMOSOMAL ABERRATIONS, Test System: CHINESE HAMSTER OVARY CELLS (CHO), Metabolic Activation: RAT, LIVER, S-9, AROCLOR 1254) “inactive; negative”; (Test System: AMES SALMONELLA TYPHIMURIUM, Strain/Indicator: TA98, Metabolic Activation: HAMSTER, LIVER, S-9, AROCLOR 1254 (30%), Method: PREINCUBATION) “active; positive”; under setting [1], “inactive; negative”. In addition, the mutagenic call reads like this: (Test System: AMES SALMONELLA TYPHIMURIUM, Strain/Indicator: TA98, Metabolic Activation: RAT, LIVER, S-9, AROCLOR 1254 (30%), Method: PREINCUBATION) “active; positive”; (Test System: AMES SALMONELLA TYPHIMURIUM, Strain/Indicator: TA100, Metabolic Activation: HAMSTER, LIVER, S-9, AROCLOR 1254 (30%), Method: PREINCUBATION) “inactive; negative”; under setting [2], “inactive; negative”; (Test System: AMES SALMONELLA TYPHIMURIUM, Strain/Indicator: TA100, Metabolic Activation: RAT, LIVER, S-9, AROCLOR 1254 (30%), Method: PREINCUBATION) “inactive; negative”; (Test System: Ames Salmonella typhimurium, Strain/Indicator: TA102, Metabolic Activation: None, Method: Preincubation) “inactive; negative”; (Test System: Ames Salmonella typhimurium, Strain/Indicator: TA102, Metabolic Activation: Rat, Liver, S9, Aroclor 1254, Method: Preincubation) “active; positive”. Moreover, the mutagenic call (Test System: Ames Salmonella typhimurium, Strain/Indicator: TA104, Metabolic Activation: None, Method: Preincubation) is “inactive; negative” and the mutagenic call (Test System: Ames Salmonella typhimurium, Strain/Indicator: TA104, Metabolic Activation: Rat, Liver, S9, Aroclor 1254, Method: Preincubation) was “active; positive”.
